Test results from patent publication US8889878B2, “Haloalky-substituted amides as insecticides and acaricides” (Bayer CropScience AG, priority 2009, dated 2014).

Tests used:
Boophilus microplus [1] = test: Boophilus microplus test (BOOPMI injection), Example 11; type: in vivo; details: application rate 20 μg/animal, injected into abdomen, after 7 days; for pest or weed control at 0.02 mg: Rhipicephalus microplus, 168 h, read-out: efficacy in % (fertile eggs laid)
Summary of the method: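 Efficacy rated from fertile egg laying: 100% means none of the ticks laid fertile eggs, read after 7 days. Compound, dissolved and diluted in DMSO, was delivered by abdominal injection, and ticks were kept in dishes under climate control.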

Boophilus microplus [2] = test: Boophilus microplus test (BOOPMI injection), Example 1; type: in vivo; details: application rate 20 μg/animal, injected into abdomen, after 7 days
Experimental: Boophilus microplus Test (BOOPMI Injection) • Solvent: dimethyl sulphoxide To prepare an active ingredient formulation, 10 mg of active ingredient are mixed with 0.5 ml of solvent and the concentrate is diluted with water to the desired concentration. The active ingredient solution was injected into the abdomen (Boophilus microplus), and the animals were transferred to dishes and stored in a climate-controlled room. The efficacy was assessed by the number of fertile eggs laid. After 7 days, the efficacy in % is determined. 100% means that no tick laid fertile eggs.

[3] = tested on: armyworm (Spodoptera frugiperda); test: Spodoptera frugiperda test (SPODFR spray treatment), Example 15; type: in vivo; details: maize leaf discs sprayed, after 7 days; for pest or weed control at 500 g/ha: Spodoptera frugiperda, foliar, 168 h, read-out: efficacy in %
Summary of the method: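 Caterpillars placed on dried, sprayed Zea mays leaf discs; formulation of acetone, dimethylformamide and emulsifier diluted with emulsifier-containing water to test concentration. Percent kill scored on day 7.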

[4] = logP by HPLC on reverse-phase column (EEC Directive 79/831 Annex V.A8); type: physicochemical; details: for chromatographic logP: reverse-phase C18 HPLC column
Experimental: The logP values reported in the above Tables and Preparation Examples were determined according to EEC Directive 79/831 Annex V.A8 by HPLC (High Performance Liquid Chromatography) on a reverse-phase column (C18). Temperature 43° C.

[5] = tested on: mustard beetle (Phaedon cochleariae); test: Phaedon test (PHAECO spray treatment), Example 16; type: in vivo; details: Phaedon cochleariae, foliar, china cabbage leaf discs sprayed, after the desired time, read-out: efficacy in %; for pest or weed control at 500 g/ha: application rate 500 g/ha
Experimental: Phaedon Test (PHAECO Spray Treatment)
(§1) • Solvent: 78.0 parts by weight of acetone • 1.5 parts by weight of dimethylformamide • Emulsifier: 0.5 part by weight of alkylaryl polyglycol ether
To prepare an appropriate active ingredient formulation, 1 part by weight of active ingredient is mixed with the stated amounts of solvent and emulsifier, and the concentrate is diluted with emulsifier-containing water to the desired concentration. […]
After the desired time, the efficacy in % is determined. 100% means that all beetle larvae were killed; 0% means that no beetle larvae were killed.

Musca domestica adults = test: Musca domestica test (MUSCDO), Example 14; type: in vivo; details: application rate 100 ppm, treated sponge, after 2 days
Experimental: (§2) Musca domestica Test (MUSCDO) • Solvent: dimethyl sulphoxide To prepare an appropriate active ingredient formulation, 10 mg of active ingredient are mixed with 0.5 ml of dimethyl sulphoxide, and the concentrate is diluted with water to the desired concentration. Vessels containing a sponge which has been treated with the active ingredient formulation of the desired concentration are populated with Musca domestica adults. After 2 days, the kill rate in % is determined. 100% means that all flies were killed; 0% means that no flies were killed.

[6] = tested on: green peach aphid (Myzus persicae); test: Myzus test (MYZUPE spray treatment), Example 17; type: in vivo; details: china cabbage leaf discs sprayed, after 6 days
Summary of the method: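 Efficacy recorded at 6 days as % kill, where 100% means every aphid dead and 0% none. Spray applied to Brassica pekinensis leaf discs bearing mixed-stage aphids; active ingredient dissolved in acetone with dimethylformamide and emulsifier, then diluted with emulsifier-containing water.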

Lucilia cuprina larvae = test: Lucilia cuprina test (LUCICU), Example 13; type: in vivo; details: application rate 100 ppm, treated horsemeat, after 2 days
Experimental: as §2, with “Lucilia cuprina” for “Musca domestica”, “(LUCICU)” for “(MUSCDO)”, “horsemeat” for “a sponge”, “about 20 Lucilia cuprina larvae.” for “Musca domestica adults.”, “larvae” for “flies”

[7] = tested on: red spider mite (Tetranychus urticae); test: Tetranychus test, OP-resistant (TETRUR spray treatment), Example 8; type: in vivo; details: application rate 20 g/ha, common bean leaf discs sprayed, after 6 days
Experimental: Tetranychus Test, OP-resistant (TETRUR Spray Treatment)
as §1
To prepare an active ingredient formulation, 1 part by weight of active ingredient is mixed with the stated amounts of solvent and emulsifier, and the concentrate is diluted with emulsifier-containing water to the desired concentration.
Leaf discs from the common bean (Phaseolus vulgaris) infested by all stages of the red spider mite (Tetranychus urticae) are sprayed with an active ingredient formulation of the desired concentration.
After 6 days, the efficacy in % is determined. 100% means that all spider mites were killed; 0% means that no spider mites were killed.

[8] = tested on: mustard beetle (Phaedon cochleariae); test: Phaedon test (PHAECO spray treatment), Example 7; type: in vivo; details: application rate 20 g/ha, china cabbage leaf discs sprayed, after 7 days
Summary of the method: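 Spray formulation (acetone/DMF with alkylaryl polyglycol ether, diluted in emulsifier-containing water) applied to Chinese cabbage leaf discs, which were dried and then stocked with mustard beetle larvae. Efficacy scored at 7 days as % larvae killed (100% all, 0% none).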

Ctenocephalides felis = Ctenocephalides felis oral (CTECFE), Example 2; type: in vivo; details: application rate 20 ppm in citrated cow's blood, after 2 days
Experimental: Ctenocephalides felis Oral ([…]) • Solvent: 1 part by weight of dimethyl sulphoxide For the purpose of preparing an active ingredient formulation, 10 mg of active ingredient are mixed with 0.5 ml of dimethyl sulphoxide. A portion of the concentrate was diluted with citrated cow's blood and the desired concentration was prepared. 20 unfed adult fleas (Ctenocephalides felis) are placed into a chamber sealed at the top and bottom with gauze. A metal cylinder with its lower end sealed with Parafilm is placed onto the chamber. The cylinder contains the blood-active ingredient preparation, which can be consumed by the fleas through the Parafilm membrane. After 2 days, the kill rate in % is determined. 100% means that all fleas were killed; 0% means that no fleas were killed.

[9] = pH 2.7, HPLC, C18 reverse phase, 43° C., acidic range pH 2.7, calibration with alkan-2-ones

Row | Compound | efficacy in % (fertile eggs laid) (Boophilus microplus [2]) | kill rate in % (efficacy) (Musca domestica adults) | efficacy in % (fertile eggs laid) (Boophilus microplus [1]) | logP ([4]; HPLC-MS) | other results
1 | N#Cc1ccc(/C=C/C(=O)NC(c2cccc(C(F)(F)F)c2)C(F)(F)F)cc1 (centres unmarked) [Ia-8, (2E)-3-(4-Cyanophenyl)-N-{2,2,2-trifluoro-1-[3-(trifluoromethyl)phenyl]ethyl}acrylamide] | 100% |  |  |  | pest or weed control at 0.02 mg (Boophilus microplus [1]): 100%; pest or weed control at 500 g/ha ([3]; application rate 500 g/ha): 100%; chromatographic logP [4, 9]: 3.54; pest or weed control at 500 g/ha [5]: 100%
2 | CC(C)ONC(=O)c1ccc(/C=C/C(=O)NC(c2cccc(C(F)(F)F)c2)C(F)(F)F)cc1C(F)(F)F (centres unmarked) [Ia-149] |  | 100% | 100% | HPLC-MS: logP = 3.48; mass | efficacy in % ([3]; application rate 100 g/ha): 100%
3 | CC(NC(=O)c1ccc(/C=C/C(=O)NC(c2cccc(C(F)(F)F)c2)C(F)(F)F)cc1Cl)C(F)(F)F (centres unmarked) [Ia-158] |  | 100% | 100% | HPLC-MS: logP = 3.78; mass | efficacy in % ([6]; application rate 100 g/ha): 80%; efficacy in % ([3]; application rate 100 g/ha): 100%
4 | N#Cc1ccc(/C=C/C(=O)NC(c2cccc(C(F)(F)F)c2)C(F)(F)F)cc1C(F)(F)F (centres unmarked) [Ia-46, (2E)-3-[4-cyano-3-(trifluoromethyl)phenyl]-N-{2,2,2-trifluoro-1-[3-(trifluoromethyl)phenyl]ethyl}acrylamide] | 100% |  |  |  | pest or weed control at 0.02 mg (Boophilus microplus [1]): 100%; pest or weed control at 500 g/ha ([3]; application rate 500 g/ha): 100%; chromatographic logP ([4]; HPLC-MS): 4.06; pest or weed control at 500 g/ha [5]: 100%
5 | CC(C#N)NC(=O)c1ccc(/C=C/C(=O)NC(c2cccc(C(F)(F)F)c2)C(F)(F)F)cc1C(F)(F)F (centres unmarked) [Ia-141] |  | 100% | 100% | HPLC-MS: logP = 3.39; mass | efficacy in % ([6]; application rate 100 g/ha): 100%; efficacy in % ([3]; application rate 100 g/ha): 100%
6 | CC(Cn1cccn1)NC(=O)c1ccc(/C=C/C(=O)NC(c2cccc(C(F)(F)F)c2)C(F)(F)F)cc1C(F)(F)F (centres unmarked) [Ia-139] |  |  | 100% | HPLC-MS: logP = 3.42; mass | kill rate in % (efficacy) (Lucilia cuprina larvae): 80%
7 | O=C(/C=C/c1ccc(C(=O)NCC(F)F)c(C(F)(F)F)c1)NC(c1cccc(C(F)(F)F)c1)C(F)(F)F (centres unmarked) [Ia-57] |  | 100% | 100% | HPLC-MS: logP = 3.48; mass | efficacy in % ([6]; application rate 500 g/ha): 100%; efficacy in % [7]: 90%; efficacy in % [8]: 100%
8 | O=C(/C=C/c1ccc(C(=O)Nc2ccc(Cl)cn2)c(C(F)(F)F)c1)NC(c1cccc(C(F)(F)F)c1)C(F)(F)F (centres unmarked) [Ia-122] |  | 90% | 100% | HPLC-MS: logP = 4.3; mass | 
9 | O=C(/C=C/c1ccc(C(=O)NCC(F)(F)F)c(Cl)c1)NC(c1cccc(C(F)(F)F)c1)C(F)(F)F (centres unmarked) [Ia-19] |  | 100% | 100% | HPLC-MS: logP = 3.56; mass | 
10 | O=C(/C=C/c1ccc(C(=O)NC2C[S+]([O-])C2)c(Cl)c1)NC(c1cccc(C(F)(F)F)c1)C(F)(F)F (centres unmarked) [Ia-167, 2-chloro-N-(1-oxidothietan-3-yl)-4-[(1E)-3-oxo-3-({2,2,2-trifluoro-1-[3-(trifluoromethyl)phenyl]ethyl}amino)prop-1-en-1-yl]benzamide] |  |  |  |  | efficacy in % ([6]; application rate 100 g/ha): 80%; chromatographic logP [4, 9]: 2.63; pest or weed control at 100 g/ha ([5]; application rate 100 g/ha): 100%
11 | O=C(/C=C/c1ccc(C(=O)NCC2CC2)c(Cl)c1)NC(c1cccc(C(F)(F)F)c1)C(F)(F)F (centres unmarked) [Ia-163] |  | 100% | 100% | HPLC-MS: logP = 3.54; mass | efficacy in % ([6]; application rate 100 g/ha): 100%
12 | O=C(/C=C/c1ccc(C(=O)NC2CCCC2C(F)(F)F)c(C(F)(F)F)c1)NC(c1cccc(C(F)(F)F)c1)C(F)(F)F (centres unmarked) [Ia-77] | 100% |  | 100% | HPLC-MS: logP = 3.93; mass | efficacy in % [7]: 80%
13 | O=C(/C=C/c1ccc(C(=O)NCc2ccccn2)c(C(F)(F)F)c1)NC(c1ccc(Cl)c(Cl)c1)C(F)(F)F (centres unmarked) [Ia-32] | 100% |  | 100% | HPLC-MS: logP = 2.98; mass | kill rate in % (efficacy) (Ctenocephalides felis): 100%; efficacy in % ([3]; application rate 500 g/ha): 83%
14 | N#CC1CC1NC(=O)c1ccc(/C=C/C(=O)NC(c2cccc(C(F)(F)F)c2)C(F)(F)F)cc1C(F)(F)F (centres unmarked) [Ia-140] |  | 100% | 100% | HPLC-MS: logP = 3.37; mass | efficacy in % ([6]; application rate 100 g/ha): 90%; efficacy in % ([3]; application rate 100 g/ha): 100%
15 | COCCNC(=O)c1ccc(/C=C/C(=O)NC(c2cccc(C(F)(F)F)c2)C(F)(F)F)cc1C(F)(F)F (centres unmarked) [Ia-58] | 100% |  | 100% | HPLC-MS: logP = 3.12; mass | efficacy in % ([6]; application rate 500 g/ha): 100%; efficacy in % [7]: 90%; efficacy in % [8]: 100%; kill rate in % (efficacy) (Ctenocephalides felis): 98%; efficacy in % ([3]; application rate 500 g/ha): 83%
16 | Cn1c(C(=O)NC(c2cccc(C(F)(F)F)c2)C(F)(F)F)cc2cc(C(=O)NC3CC3)c(Cl)cc21 (racemic) [Ic-25] |  | 100% | 100% |  | 
17 | CC(NC(=O)c1ccc(/C=C/C(=O)NC(c2cccc(C(F)(F)F)c2)C(F)(F)F)cc1Br)c1ccccn1 (centres unmarked) [Ia-134] |  |  | 100% | HPLC-MS: logP = 3.11; mass | kill rate in % (efficacy) (Lucilia cuprina larvae): 90%
18 | N#Cc1ccc(/C=C/C(=O)NC(c2cccc(C(F)(F)F)c2)C(F)(F)F)cc1Cl (centres unmarked) [Ia-44] | 100% |  | 100% | HPLC-MS: logP = 3.91; mass | 
19 | CC(CC1CC1)NC(=O)c1ccc(/C=C/C(=O)NC(c2cccc(C(F)(F)F)c2)C(F)(F)F)cc1C(F)(F)F (centres unmarked) [Ia-148] |  | 90% | 100% | HPLC-MS: logP = 4.24; mass | efficacy in % ([3]; application rate 100 g/ha): 100%
20 | C#CCNC(=O)c1ccc(/C=C/C(=O)NC(c2cccc(C(F)(F)F)c2)C(F)(F)F)cc1Cl (centres unmarked) [Ia-151] |  | 80% | 100% | HPLC-MS: logP = 3.2; mass | 
